Assay results as given in PubChem BioAssay (NCI).
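Results reflect a 48-hour exposure of cells in 96-well plates to compound at five concentrations. Abbreviation: GI50, concentration required for 50% inhibition of growth. TGI is the concentration that stops growth completely.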

How the values were obtained:
Assay in all cases: inhibition of tumour cell growth, NCI panel, 48 h
786-0 renal = test system: 786-0 renal
CCRF-CEM leukemia = test system: CCRF-CEM leukemia
DU-145 prostate = test system: DU-145 prostate
HCT-15 colon = test system: HCT-15 colon
KM12 colon = test system: KM12 colon
MDA-MB-231 breast = test system: MDA-MB-231 breast
MDA-MB-435 = test system: MDA-MB-435
NCI/ADR-RES ovarian = test system: NCI/ADR-RES ovarian
SF-268 CNS = test system: SF-268 CNS
UO-31 renal = test system: UO-31 renal

SMILES	GI50 (786-0 renal)	TGI (786-0 renal)	GI50 (CCRF-CEM leukemia)	TGI (CCRF-CEM leukemia)	GI50 (DU-145 prostate)	TGI (DU-145 prostate)	GI50 (HCT-15 colon)	TGI (HCT-15 colon)	GI50 (KM12 colon)	TGI (KM12 colon)	GI50 (MDA-MB-231 breast)	TGI (MDA-MB-231 breast)	GI50 (MDA-MB-435)	TGI (MDA-MB-435)	GI50 (NCI/ADR-RES ovarian)	TGI (NCI/ADR-RES ovarian)	GI50 (SF-268 CNS)	TGI (SF-268 CNS)	GI50 (UO-31 renal)	TGI (UO-31 renal)
O=S(=O)(Nc1ccccn1)c1ccc(N=Nc2ccc(O)c3ncccc23)cc1	3.42 µM	13.6 µM	1.21 µM	> 95.2 µM	3.22 µM	26.7 µM	0.844 µM	15.7 µM	1.17 µM	15 µM	1.11 µM	6.03 µM	0.638 µM	8.41 µM	1.02 µM	12.8 µM	1.12 µM	50.7 µM	0.696 µM	3.33 µM
Fc1cccc(-c2[nH]nc3nc(Nc4cccnc4)sc23)c1	> 100 µM	> 100 µM	3.5 µM	> 100 µM	4.71 µM	24.8 µM	0.948 µM	> 100 µM	0.631 µM	> 100 µM	35.2 µM	> 100 µM	0.28 µM	> 100 µM	1.83 µM	> 100 µM	> 100 µM	> 100 µM	95.1 µM	> 100 µM
COc1cc(N2CCC(N3CCN(C)CC3)CC2)ccc1Nc1ncc(Cl)c(Nc2ccccc2S(=O)(=O)C(C)C)n1	1.12 µM	2.44 µM	0.424 µM	5.86 µM	1.46 µM	7.88 µM	1.94 µM	11.5 µM	0.352 µM	3.48 µM	0.705 µM	2.43 µM	0.387 µM	2.36 µM	1.29 µM	5.75 µM	0.813 µM	2.44 µM	1.12 µM	2.44 µM
CCN(CC)CC[n+]1cc2cc(OC)c(OC)cc2c2ccc3cc4c(cc3c21)OCO4	0.903 µM	3.78 µM	0.325 µM	20.1 µM	0.337 µM	1.96 µM	1.68 µM	4.51 µM	0.515 µM	2.46 µM	0.709 µM	2.71 µM	0.675 µM	2.14 µM	3.72 µM	22 µM	0.386 µM	2.71 µM	2.61 µM	8.6 µM
CC(C)(C)c1cc(-c2nc3c(F)c(F)c(F)c(F)c3[nH]2)cc(C(C)(C)C)c1O	> 100 µM	> 100 µM	> 100 µM	> 100 µM	> 100 µM	> 100 µM	> 100 µM	> 100 µM	> 100 µM	> 100 µM	> 100 µM	> 100 µM	> 100 µM	> 100 µM	> 100 µM	> 100 µM	> 100 µM	> 100 µM	> 100 µM	> 100 µM
Nc1nc(-c2cccs2)cs1	–	> 100 µM	–	> 100 µM	–	> 100 µM	–	> 100 µM	–	> 100 µM	–	> 100 µM	–	> 100 µM	–	> 100 µM	–	> 100 µM	–	> 100 µM
